Laboratory results as given in patent US20220370416A1, “COMPOUNDS AND METHODS FOR TARGETED DEGRADATION OF KRAS” (Arvinas Operations, Inc., priority 2020, published 2022).

Key:
HiBit-KRAS^G12C [1] = molecular target: T1, HiBit-KRAS^G12C (Homo sapiens, UniProt P01116, G12C); assay: HiBit degradation assay in SW1573 HiBit-KRas^G12C cells; assay type: cell-based; set-up: expressed in transfected cells; host or cells: SW1573 (clone E6), modified pcDNA3.1 vector, TK promoter; conditions: 24 hours
In short: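 SW1573 cells stably expressing N-terminally HiBit-tagged KRAS G12C, under the TK promoter, were treated 24 h at 37 °C with 10 μM to 20 nM compound in 0.1% or 0.5% DMSO. Residual HiBit luminescence normalised to DMSO and fitted with a 4-parameter model for DC50 and Dmax. Points with ≥50% viability loss (alamar blue) excluded.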

HiBit-KRAS^G12C [2] = molecular target: T1, HiBit-KRAS^G12C; assay: HiBit degradation assay in MiaPaCa-2 HiBit-KRas^G12C cells; assay type: cell-based; conditions: 24 hours; for Dmax: MIA PaCa-2, MiaPaCa-2 HiBit-KRas^G12C cells, maximum degradation; for DC50: MiaPaCa-2 HiBit-KRas^G12C cells
In short: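 MiaPaCa-2 cells with CRISPR N-terminal HiBit knock-in on one endogenous KRAS^G12C allele, treated 24 hours at 37° C with compound titrated 10 μM to 20 nM (0.1% or 0.5% DMSO). Lytic HiBit luminescence normalized to DMSO, 4-parameter fit giving DC50 and Dmax; points cytotoxic to […] cells by alamar blue excluded.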

[3] = SW1573, SW1573 HiBit-KRas^G12C, 0.5% DMSO, read-out: KRas^G12C-HiBiT (SW1573; 0.5% DMSO) Dmax**
[4] = read-out: KRas^G12C-HiBiT (SW1573; 0.5% DMSO) IC50***, SW1573 HiBit-KRas^G12C, 0.5% DMSO
[5] = 0.5% DMSO, read-out: KRas^G12C-HiBiT (MiaPaCa; 0.5% DMSO) DMax
[6] = read-out: KRas^G12C-HiBiT (MiaPaCa; 0.5% DMSO) IC50, 0.5% DMSO
[7] = SW1573, SW1573 HiBit-KRas^G12C, 0.1% DMSO, read-out: KRas^G12C-HiBit (SW1573; 0.1% DMSO) Dmax**
[8] = SW1573 HiBit-KRas^G12C, 0.1% DMSO, read-out: KRas^G12C-HIBit (SW1573; 0.1% DMSO) DC50*
[9] = 0.1% DMSO, read-out: KRas^G12C-HiBiT (MiaPaCa; 0.1% DMSO) DMax

T1 sequence (P01116 1-186 isoform P01116-2 G12C limits assumed): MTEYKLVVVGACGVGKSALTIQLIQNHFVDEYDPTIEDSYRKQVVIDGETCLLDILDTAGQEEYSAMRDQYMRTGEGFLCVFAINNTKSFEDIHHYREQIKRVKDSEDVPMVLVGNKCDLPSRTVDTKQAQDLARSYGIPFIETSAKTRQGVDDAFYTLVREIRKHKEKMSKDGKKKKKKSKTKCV

| Dmax (HiBit-KRAS^G12C [1]; [3]) [%] | DC50 (HiBit-KRAS^G12C [1]; [4]) [nM] | Dmax (HiBit-KRAS^G12C [2]; [5]) [%] | DC50 (HiBit-KRAS^G12C [2]; [6]) [nM] | Dmax (HiBit-KRAS^G12C [1]; [7]) [%] | DC50 (HiBit-KRAS^G12C [1]; [8]) [nM] | Dmax (HiBit-KRAS^G12C [2]; [9]) [%] | Compound | Dmax (HiBit-KRAS^G12C [1]; SW1573, read-out: KRas^G12C-HiBit (SW1573; 0.1% DMSO) Dmax**, SW1573 HiBit-KRas^G12C, 0.1% DMSO) [%] | DC50 (HiBit-KRAS^G12C [2]; read-out: KRas^G12C-HiBiT (MiaPaCa; 0.1% DMSO) IC50, 0.1% DMSO) [nM] |
| --- | --- | --- | --- | --- | --- | --- | --- | --- | --- |
| > 70 | < 100 | > 70 | 100 to 1000 | – | – | – | C=CC(=O)N1CCN(c2nc(OCCN3CCC(COc4cc([C@H](C(=O)N5C[C@H](O)C[C@H]5C(=O)N[C@@H](C)c5ccc(-c6ccnn6C)cc5)C(C)C)on4)CC3)nc3c(F)c(-c4cc(O)cc5ccccc45)c(Cl)cc23)C[C@@H]1CC#N (atropisomer, axis not shown) [Compound 138, (2S,4R)-1-[(2R)-2-[3-({1-[2-({6-chloro-4-[(3S)-3-(cyanomethyl)-4-(prop-2-enoyl)piperazin-1-yl]-8-fluoro-7-(3-hydroxynaphthalen-1-yl)quinazolin-2-yl}oxy)ethyl]-piperidin-4-yl}methoxy)-1,2-oxazol-5-yl]-3-methylbutanoyl]-4-hydroxy-N-[(1S)-1-[4-(1-methyl-1H-pyrazol-5-yl)phenyl]ethyl]pyrrolidine-2-carboxamide] | – | – |
| > 70 | – | 35 to 70 | – | 35 to 70 | 100 to 1000 | 35 to 70 | C=CC(=O)N1CCN(c2nc(O[C@H](C)CN3CCC(COCC(=O)N[C@H](C(=O)N4C[C@H](O)C[C@H]4C(=O)N[C@@H](C)c4ccc(-c5scnc5C)cc4)C(C)(C)C)CC3)nc3c(F)c(-c4cc(O)cc5ccccc45)c(Cl)cc23)CC1 [Compound 65, (2S,4R)-1-[(2S)-2-[2-({1-[(2R)-2-{[6-chloro-8-fluoro-7-(3-hydroxynaphthalen-1-yl)-4-[4-(prop-2-enoyl)piperazin-1-yl]quinazolin-2-yl]oxy}propyl]piperidin-4-yl}methoxy)acetamido]-3,3-dimethylbutanoyl]-4-hydroxy-N-[(1S)-1-[4-(4-methyl-1,3-thiazol-5-yl)phenyl]ethyl]pyrrolidine-2-carboxamide] | – | – |
| > 70 | – | 35 to 70 | – | 35 to 70 | 100 to 1000 | 35 to 70 | C=CC(=O)N1CCN(c2nc(O[C@H](C)CN3CCC(OCC(=O)N[C@H](C(=O)N4C[C@H](O)C[C@H]4C(=O)N[C@@H](C)c4ccc(-c5scnc5C)cc4)C(C)(C)C)CC3)nc3c(F)c(-c4cc(O)cc5ccccc45)c(Cl)cc23)CC1 [Compound 43, (2S,4R)-1-[(2S)-2-[2-({1-[(2R)-2-{[6-chloro-8-fluoro-7-(3-hydroxynaphthalen-1-yl)-4-[4-(prop-2-enoyl)piperazin-1-yl]quinazolin-2-yl]oxy}propyl]piperidin-4-yl}oxy)acetamido]-3,3-dimethylbutanoyl]-4-hydroxy-N-[(1S)-1-[4-(4-methyl-1,3-thiazol-5-yl)phenyl]ethyl]pyrrolidine-2-carboxamide] | – | – |
| > 70 | 100 to 1000 | 35 to 70 | 100 to 1000 | – | – | – | C=CC(=O)N1CCN(c2nc(OCCN3CCC(COCC(=O)N[C@H](C(=O)N4C[C@H](O)C[C@H]4C(=O)N[C@@H](C)c4ccc(-c5scnc5C)cc4)C(C)(C)C)CC3)nc3c(F)c(-c4c(C)ccc5[nH]ncc45)c(Cl)cc23)C[C@@H]1CC#N [Compound 128, (2S,4R)-1-[(2S)-2-[2-({1-[2-({6-chloro-4-[(3S)-3-(cyanomethyl)-4-(prop-2-enoyl)piperazin-1-yl]-8-fluoro-7-(5-methyl-1H-indazol-4-yl)quinazolin-2-yl}oxy)ethyl]piperidin-4-yl}methoxy)acetamido]-3,3-dimethylbutanoyl]-4-hydroxy-N-[(1S)-1-[4-(4-methyl-1,3-thiazol-5-yl)phenyl]ethyl]pyrrolidine-2-carboxamide] | – | – |
| < 35 | 100 to 1000 | – | > 1000 | – | – | – | C=CC(=O)N1CCN(c2nc(OCCN3CCC4(CC3)CN(c3cc([C@@H](C(=O)N5C[C@H](O)C[C@H]5C(=O)N[C@@H](C)c5ccc(-c6scnc6C)cc5)C(C)C)on3)C4)nc3c(F)c(-c4cc(O)cc5ccccc45)c(Cl)cc23)C[C@@H]1CC#N [Compound 137, (2S,4R)-1-[(2S)-2-(3-{7-[2-({6-chloro-4-[(3S)-3-(cyanomethyl)-4-(prop-2-enoyl)piperazin-1-yl]-8-fluoro-7-(3-hydroxynaphthalen-1-yl)quinazolin-2-yl}oxy)ethyl]-2,7-diazaspiro[3.5]nonan-2-yl}-1,2-oxazol-5-yl)-3-methylbutanoyl]-4-hydroxy-N-[(1S)-1-[4-(4-methyl-1,3-thiazol-5-yl)phenyl]ethyl]pyrrolidine-2-carboxamide] | – | – |
| > 70 | 100 to 1000 | > 70 | 100 to 1000 | – | – | – | C=CC(=O)N1CCN(c2nc(OCCN3CCC(COCC(=O)N[C@H](C(=O)N4C[C@H](O)C[C@H]4C(=O)N[C@@H](C)c4ccc(-c5scnc5C)cc4)C(C)(C)C)CC3)nc3c(F)c(-c4cc(O)cc(C)c4C)c(Cl)cc23)C[C@@H]1CC#N [Compound 102, (2S,4R)-1-[(2S)-2-[2-({1-[2-({6-chloro-4-[(3S)-3-(cyanomethyl)-4-(prop-2-enoyl)piperazin-1-yl]-8-fluoro-7-(5-hydroxy-2,3-dimethylphenyl)quinazolin-2-yl}oxy)ethyl]piperidin-4-yl}methoxy)acetamido]-3,3-dimethylbutanoyl]-4-hydroxy-N-[(1S)-1-[4-(4-methyl-1,3-thiazol-5-yl)phenyl]ethyl]pyrrolidine-2-carboxamide] | – | – |
| > 70 | 100 to 1000 | > 70 | 100 to 1000 | – | – | – | C=C(F)C(=O)N1CCN(c2nc(OCCN3CCC(COCC(=O)N[C@H](C(=O)N4C[C@H](O)C[C@H]4C(=O)N[C@@H](C)c4ccc(-c5ccnn5C)cc4)C(C)(C)C)CC3)nc3c(F)c(-c4cc(O)cc5ccccc45)c(Cl)cc23)C[C@@H]1CC#N (atropisomer, axis not shown) [Compound 129, (2S,4R)-1-[(2S)-2-[2-({1-[2-({6-chloro-4-[(3S)-3-(cyanomethyl)-4-(2-fluoroprop-2-enoyl)piperazin-1-yl]-8-fluoro-7-(3-hydroxynaphthalen-1-yl)quinazolin-2-yl}oxy)ethyl]piperidin-4-yl}methoxy)acetamido]-3,3-dimethylbutanoyl]-4-hydroxy-N-[(1S)-1-[4-(1-methyl-1H-pyrazol-5-yl)phenyl]ethyl]pyrrolidine-2-carboxamide] | – | – |

| Compound | Dmax (HiBit-KRAS^G12C [1]; [3]) [%] | DC50 (HiBit-KRAS^G12C [1]; [4]) [nM] | Dmax (HiBit-KRAS^G12C [2]; [5]) [%] | DC50 (HiBit-KRAS^G12C [2]; [6]) [nM] | Dmax (HiBit-KRAS^G12C [1]; [7]) [%] | DC50 (HiBit-KRAS^G12C [1]; [8]) [nM] | Dmax (HiBit-KRAS^G12C [2]; [9]) [%] | Dmax (HiBit-KRAS^G12C [1]; SW1573, read-out: KRas^G12C-HiBit (SW1573; 0.1% DMSO) Dmax**, SW1573 HiBit-KRas^G12C, 0.1% DMSO) [%] | DC50 (HiBit-KRAS^G12C [2]; read-out: KRas^G12C-HiBiT (MiaPaCa; 0.1% DMSO) IC50, 0.1% DMSO) [nM] |
| --- | --- | --- | --- | --- | --- | --- | --- | --- | --- |
| C=CC(=O)N1CCN(c2nc(O[C@H](C)CN3CCN(CCOC4CCN(CC(=O)N[C@H](C(=O)N5C[C@H](O)C[C@H]5C(=O)N[C@@H](C)c5ccc(-c6scnc6C)cc5)C(C)(C)C)CC4)CC3)nc3c(F)c(-c4cc(O)cc5ccccc45)c(Cl)cc23)CC1 [Compound 55, (2S,4R)-1-[(2S)-2-{2-[4-(2-{4-[(2R)-2-{[6-chloro-8-fluoro-7-(3-hydroxynaphthalen-1-yl)-4-[4-(prop-2-enoyl)piperazin-1-yl]quinazolin-2-yl]oxy}propyl]piperazin-1-yl}ethoxy)piperidin-1-yl]acetamido}-3,3-dimethylbutanoyl]-4-hydroxy-N-[(1S)-1-[4-(4-methyl-1,3-thiazol-5-yl)phenyl]ethyl]pyrrolidine-2-carboxamide] | – | – | – | – | – | 100 to 1000 | – | < 35 | > 1000 |
